Measurements taken from patent publication US8354455B2, “Prodrugs containing novel bio-cleavable linkers” (Piramal Enterprises Limited and Apparao Satyam, priority 2004, dated 2013).
In brackets after ≈: the same amount, converted by molar mass.

How the values were obtained:
MES-induced seizures [1] = assay: Maximal Electroshock Test (MES), Test 1, mice i.p.; type: in vivo
MES-induced seizures [2] = assay: animal or person; type: in vivo, rats; details: Test 2, rats p.o., 50 mg/kg
convulsant metrazol = assay: Subcutaneous Metrazol Seizure Threshold Test (scMET), Test 1, mice i.p.; type: in vivo; details: mice, i.p.
rats = details: rat, in vivo, po, 50 mg/kg
Excerpt: Acute Toxicity—Minimal Motor Impairment (MMI): To assess a compound's undesirable side effects (toxicity), animals were monitored for overt signs of impaired neurological or muscular function.
Groups of at least 8 rats received various doses of the candidate compound until at least two points were established between the limits of 100 percent protection or toxicity and zero percent protection or minimal toxicity. The 95 percent confidence limits, slopes of the regression lines and standard errors of the slopes were calculated for each quantitative determination. Rats received test compounds orally.
This secondary evaluation determines the time to peak effect (TPE), neurotoxicity, median effective dose (ED50) and biological response.

[3] = Water solubility (HPLC of supernatant); type: physicochemical
Experimental: Water solubility: Paclitaxel and its prodrug I-S22-PD2 (2 mg each) were suspended in 1 mL water or PBS-buffer (pH 7.4). The suspensions were sonicated for 15 min and centrifuged (13,000 g) for 10 min. The supernatant was analyzed using HPLC.
HPLC: Waters RP18 column ([…], X-Terra); DAD-HP Agilent (Model 1100); eluent: CH3CN:H2O (gradient 0-100% acetonitrile in 0-15 min). The UV-detector was set at […]. The concentrations were determined by measuring the relative area of paclitaxel or I-S22-PD2. […] (i.e., ˜0.2 mg/mL).

| Compound | activity in MES model (in words) (MES-induced seizures [1]; Test 1, mice i.p.) | MES (number of animal protected/number of animal tested) (MES-induced seizures [1]; mice, i.p., 0.5 h, 300 mg/kg (+)) | MES 0.5 h (MES-induced seizures [1]; mice, i.p., 0.5 h, symbol = dose with activity) | MES 4.0 h (MES-induced seizures [1]; mice, i.p., 4.0 h, symbol = dose with activity) | MES (number of animal protected/number of animal tested) (MES-induced seizures [2]; 0.50 h) | MES (number of animal protected/number of animal tested) (MES-induced seizures [2]; 1.00 h) | MES (number of animal protected/number of animal tested) (MES-induced seizures [2]; 2.00 h) | MES (number of animal protected/number of animal tested) (MES-induced seizures [2]; 4.00 h) | ScMET (number of animal protected/number of animal tested) (convulsant metrazol; 0.5 h, 300 mg/kg (+)) | ScMET 0.5 h (convulsant metrazol; 0.5 h, symbol = dose with activity) | ScMET 4.0 h (convulsant metrazol; 4.0 h, symbol = dose with activity) | Toxicity (number of animals exhibiting toxicity/number of animals tested) (rats) | toxicity (in words) (mice; Test 1, mice i.p.) | Rotorod Toxicity 0.5 h (mice; mice, i.p., 0.5 h, symbol = dose with toxicity) | Rotorod Toxicity 4.0 h (mice; mice, i.p., 4.0 h, symbol = dose with toxicity) | solubility at 15 min ([3]; aqueous buffer, thermodynamic from solid, 2 mg suspended in 1 mL water or PBS-buffer (pH 7.4), sonicated, centrifuged) [µg/mL] | solubility relative to paclitaxel ([3]; water or PBS-buffer (pH 7.4)) [times] |
| --- | --- | --- | --- | --- | --- | --- | --- | --- | --- | --- | --- | --- | --- | --- | --- | --- | --- |
| CCOC(=O)CC1(CNC(=O)OCCSSCC(=O)OC)CCCCC1 [I-A1-PD5] | active in MES | (1/1) | + (+ = activity or toxicity at 300 mg/kg) | — (— = no activity or no toxicity at 300 mg/kg) | 0/4 | 0/4 | 1/4 | 1/4 | (3/5) | + (+ = activity or toxicity at 300 mg/kg) | — (— = no activity or no toxicity at 300 mg/kg) | 0/4 | no or mild toxicity | + (+ = activity or toxicity at 300 mg/kg) | — (— = no activity or no toxicity at 300 mg/kg) | – | – |
| CC(=O)O[C@H]1C(=O)[C@@]2(C)C([C@H](OC(=O)c3ccccc3)[C@]3(O)C[C@H](OC(=O)[C@H](OC(=O)OCCSSCCOC(=O)CCC(=O)O)[C@@H](NC(=O)c4ccccc4)c4ccccc4)C(C)=C1C3(C)C)[C@]1(OC(C)=O)CO[C@@H]1C[C@@H]2O (some centres unmarked) [I-S22-PD2] | – | – | – | – | – | – | – | – | – | – | – | – | – | – | – | ~200 (≈ 176 µM) | 20 |
